What all share (assay type): cell-based
Assay [1] deals with T1, ER (Homo sapiens, UniProt P03372).
T1 construct: T47D breast cancer cells were subcultured in cell culture medium; endogenous in cells; host or cells: T47D breast cancer cells
T1 sequence (P03372 1-595): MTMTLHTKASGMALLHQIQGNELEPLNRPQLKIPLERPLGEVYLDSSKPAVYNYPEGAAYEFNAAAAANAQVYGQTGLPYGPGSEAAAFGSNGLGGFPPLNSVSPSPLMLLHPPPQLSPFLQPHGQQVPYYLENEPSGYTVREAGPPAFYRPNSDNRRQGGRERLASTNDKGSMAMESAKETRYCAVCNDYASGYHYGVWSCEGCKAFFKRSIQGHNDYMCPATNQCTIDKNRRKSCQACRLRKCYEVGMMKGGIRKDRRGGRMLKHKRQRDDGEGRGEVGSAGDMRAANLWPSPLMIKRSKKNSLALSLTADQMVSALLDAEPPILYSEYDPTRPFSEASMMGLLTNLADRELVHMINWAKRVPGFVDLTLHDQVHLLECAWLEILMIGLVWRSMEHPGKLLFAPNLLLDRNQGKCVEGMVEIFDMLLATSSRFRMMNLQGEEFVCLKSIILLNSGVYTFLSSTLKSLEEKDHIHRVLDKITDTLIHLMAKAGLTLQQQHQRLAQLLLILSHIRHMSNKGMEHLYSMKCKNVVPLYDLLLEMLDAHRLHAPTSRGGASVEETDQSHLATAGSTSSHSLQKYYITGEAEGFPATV
Put plainly: Degradation activities on ER (Western blotting) in T47D breast cancer cells. Conditions: compound concentration 1 nM, 24 h, Western blot. The procedure:
T47D breast cancer cells were subcultured in cell culture medium, and the cells in good growth condition were seeded into 6-well plate at 2 mL/well, with 2.5×10^5 cells per well. The cells were incubated overnight in a 37° C. incubator under 5% CO2. The drug was prepared into 10 mM stock solution with dimethyl sulfoxide (DMSO). Prior to use, the stock solution was diluted with DMSO in a ratio of 1:3. […] of the diluted compound was added to the cell culture wells (to ensure a DMSO concentration of 0.1% in the culture system), and each concentration was repeated twice. The plate were gently shaken to mix. Additionally, the negative control wells (containing equal amount of DMSO) and the positive control wells were set up. After 24 hours of culture, the cells were lysed with RIPA cell lysis buffer to extract proteins, and the protein concentration was measured using a BCA kit. The protein loading buffer (5×) was added, and the plate was heated at 100° C. for 5 min. Then, the sample was stored at −20° C. […] of protein collected from each well was loaded onto a polyacrylamide gel for electrophoresis. The protein is transferred from the polyacrylamide gel to a PVDF membrane, blocked with 5% skim milk at room temperature for 1 h, and incubated overnight at 4° C. with primary antibodies Anti-ERα rabbit mAb (CST, Cat #: 8644S) and Anti-GAPDH rabbit mAb (CST, Cat #: 2118L). The membrane was washed three times with TBST solution, with 10 min for each time. The secondary antibody (horseradish peroxidase-labeled goat anti-rabbit IgG) was incubated at room temperature for 2 h, and then the membrane was washed three times with TBST solution, with 10 min for each time. Finally, ECL chromogenic solution was added for color development, and an automatic chemiluminescence instrument was used to take pictures. Images were collected and analyzed.
The degradation activities of the compounds according to the present invention towards ER, as tested by western blotting, are presented in Table 2
On the technique in general: In western blotting, separated proteins are transferred to a membrane and probed.

The target in assay [2] is T1, ER. As to the kind of experiment: Degradation activities on ER (ELISA) in T47D breast cancer cells. Conditions: T47D cells, 24 h, ELISA; for DC50: concentration required to degrade 50% of the target protein; for Dmax: maximum percentage of target protein degraded. Summed up: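 Cellular ER degradation ELISA: compound dosed 24 h on T47D cells (2.5×10^4/well, pre-grown 3 days) at six final levels from 100 nM downward. Remaining ER was detected by HRP-TMB absorbance at 450 nm. Dose-response fitting gave DC50 and Dmax, the maximal percentage degraded.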

Assay [3] has as its system MCF-7 breast cancer cells. As to the kind of experiment: Inhibition of proliferation of MCF-7 breast cancer cells (agarose culture, CellTiter-Glo 3D). The note with it: MCF-7 cells, 15 days of cultivation, read-out: IC50. The procedure:
After 1.6% agarose and 0.7% agarose were sterilized at high temperature, they were cooled to around 50° C., and placed in a 42° C. water bath for later use. MCF-7 breast cancer cells were subcultured in complete cell culture medium, and cells in good growth condition were digested and counted for future use. 50 µL of 1.6% agarose mixed with 2× culture medium at a ratio of 1:1 was spread into the bottom of 96-well plate, and allowed to cool and solidify. 0.7% agarose was mixed with diluted cell suspension in a ratio of 1:1, and then 50 µL of the mixture of gel and cells was added to each well, with 2000 cells for each well; the mixture was allowed to cool and solidify at room temperature. 50 μL of culture medium was added to the plate containing cells, and the plate was placed in a 37° C., 5% CO2 incubator and cultured for 24 h. The drug was prepared into 10 mM stock solution with dimethyl sulfoxide (DMSO). The stock solution was diluted in a ratio of 1:3, to obtain 9 concentration gradients. Then, each concentration of compound solution was further diluted with culture medium in 1:250 (to ensure a DMSO concentration of 0.1% in the culture system). Two replicate wells was set for each concentration. 50 μL of the diluted compound solution was added to the cell culture wells (with final concentrations of 10 μM, 3.3 μM, 1.1 μM, 0.37 μM . . . ). The plate was gently shaken for mixing. Additionally, 3 negative control wells only containing cells and 3 blank control wells only containing culture medium were set up (each of the 6 wells was added with 50 μL of DMSO diluted with culture medium in a ration of 1:250). After 15 days of cultivation, the cell plates and CellTiter-Glo 3D Cell Viability were taken out and equilibrated to room temperature in advance. 80 μL of culture medium were aspirated and discarded from the cell plate, and 120 µL of CellTiter-Glo 3D Cell Viability solution was added to each well. The plates were centrifuged at 1200 rpm/min for 5 min, and then placed in the dark and kept for 25 min. The […] were measured using a multi-function microplate reader. The data were analyzed using the Dose-response-inhibition equation in GraphPad Prism8 software, and the IC50 values were obtained, as shown in Table 3.
(In general: ATP-based viability assays read luminescence as a measure of living cells.)

Data on eleven compounds can be found in patent US20260258039A1, “AROMATIC COMPOUND, METHOD FOR PREPARING SAME, AND USE THEREOF IN PREPARATION OF ESTROGEN RECEPTOR DEGRADER” (Hinova Pharmaceuticals Inc., priority 2022, published 2026).

Broadly, the DC50 is the concentration giving 50% degradation. Read a low DC50 as a more potent degrader. In general, Dmax refers to the largest share of the target that was removed. The IC50 is the concentration needed to halve the response being measured.

SMILES strings stand for the structures. Where two headings read alike, the source gives them in different places.

Turning to `O=C1CCC(N2C(=O)c3ccc(N4CC5(CCN(CC6CCN(c7ccc([C@H]8c9ccc(O)cc9OC[C@H]8c8ccccc8)cc7)CC6)CC5)C4)cc3C2=O)C(=O)N1` (stereo partly drawn) [Example 80, 2-(2,6-dioxopiperidin-3-yl)-5-(7-((1-(4-((3R,4S)-7-hydroxyl-3-phenylchroman-4-yl)phenyl)piperidin-4-yl)methyl)-2,7-diazaspiro[3.5]nonane-2-yl)isoinodolin-1,3-dione], at ER [1], the “Percentage reduction of ER” value is 50%.

Regarding `O=C1CCC(N2Cc3cc(N4CC5(CCN(CC6CCN(c7ccc([C@@H]8c9ccc(O)cc9OC[C@@H]8c8cccc(F)c8F)cc7F)CC6)CC5)C4)ccc3C2=O)C(=O)N1` (stereo partly drawn) [Example 16, 3-(5-(7-((1-(4-((3S, 4R)-3-(2,3-difluorophenyl)-7-hydroxychroman-4-yl)-2-fluorophenyl)piperidin-4-yl)methyl)-2,7-diazaspiro[3.5]nonane-2-yl)-1-oxoisoinodolin-2-yl)piperidin-2,6-dione], the DC50 at ER [2] is below 10 nM. Moreover, the Dmax at ER [2] (read-out: Dmax) fell in the range of 50 to 75%. Further, in assay [3] (Homo sapiens, MCF7, 360 h), the IC50 is below 10 nM.

`O=C1CCC(N2Cc3cc(N4CC5(CCN(CC6CCN(c7c(F)cc([C@@H]8c9ccc(O)cc9OC[C@@H]8c8c(F)cccc8F)cc7F)CC6)CC5)C4)ccc3C2=O)C(=O)N1` (stereo partly shown) [Example 40]: the DC50 at ER [2] was below 10 nM. For the same compound, the IC50 in assay [3] (Homo sapiens, MCF7, 360 h) is below 10 nM.

As for `O=C1CCC(N2Cc3cc(N4CC5(CCN(CC6CCN(c7ccc([C@H]8c9ccc(O)cc9OC[C@H]8c8ccccc8F)cc7F)CC6)CC5)C4)ccc3C2=O)C(=O)N1` (relative stereo) [Example 87, 3-(5-(7-((1-(2-fluoro-4-(cis-3-(2-fluorophenyl)-7-hydroxybenzopyran-4-yl)phenyl)piperidin-4-yl)methyl)-2,7-diazaspiro[3.5]nonane-2-yl)-1-oxoisoinodolin-2-yl)piperidin-2,6-dione], on ER [2], the DC50 was below 10 nM and the Dmax result is given as “B (B: 75-50%)”. For the same compound, in assay [3], the IC50 is below 10 nM.

As to `O=C1CCC(N2Cc3cc(N4CC5(CCN(CC6CCN(c7ccc(C8=C(c9c(F)cccc9F)COc9cc(O)ccc98)cc7)CC6)CC5)C4)ccc3C2=O)C(=O)N1` (stereo not shown) [Example 18, 3-(5-(7-((1-(4-(3-(2,6-difluorophenyl)-7-hydroxyl-2H-chromene-4-yl)phenyl)piperidin-4-yl)methyl)-2,7-diazaspiro[3.5]nonane-2-yl)-1-oxoisoinodolin-2-yl)piperidin-2,6-dione], at ER [2], the DC50 was below 10 nM and the Dmax entry is given as “A (A: >75%)”. The IC50 in assay [3] was below 10 nM.

Consider `CC(C)C[C@H]1COc2cc(O)ccc2[C@H]1c1cc(F)c(N2CCC(CN3CCC4(CC3)CN(c3ccc5c(c3)CN(C3CCC(=O)NC3=O)C5=O)C4)CC2)c(F)c1` (stereo partly drawn) [Example 17, 3-(5-(7-((1-(2,6-difluoro-4-(cis-7-hydroxyl-3-isobutylchroman-4-yl)phenyl)piperidin-4-yl)methyl)-2,7-diazaspiro[3.5]nonane-2-yl)-1-oxoisoinodolin-2-yl)piperidin-2,6-dione], for which the 50% degradation concentration (DC50) at ER [2] was below 10 nM. Moreover, the Dmax at ER [2] (read-out: Dmax) lay within 50 to 75%. Besides, the IC50 in assay [3] (Homo sapiens, MCF7, 360 h) was 11 to 50 nM.

At ER [2], `O=C1CCC(N2Cc3cc(N4CC5(CCN(CC6CCN(c7ccc([C@@H]8c9ccc(O)cc9OC[C@@H]8c8ccc(F)cc8)cc7)CC6)CC5)C4)ccc3C2=O)C(=O)N1` (stereo partly drawn) [Example 9, 3-(5-(7-((1-(4-(cis-3-(4-fluorophenyl)-7-hydroxyltryptophane-4-yl)phenyl)piperidin-4-yl)methyl)-2,7-diazaspiro[3.5]nonane-2-yl)-1-oxoisoinodolin-2-yl)piperidin-2,6-dione] came in with a DC50 below 10 nM. At ER [2] (read-out: Dmax), the maximal degradation (Dmax) was 50 to 75%. For the same compound, the concentration for half-maximal inhibition (IC50) in assay [3] (Homo sapiens, MCF7, 360 h) lay in the range of 11 to 50 nM.

The compound `O=C1CCC(N2Cc3cc(N4CCC(N5CC6(CCN(c7ccc([C@@H]8c9ccc(O)cc9OC[C@@H]8c8ccccc8F)cc7)CC6)C5)CC4)ccc3C2=O)C(=O)N1` (stereo partly drawn) [Example 14, 3-(5-(4-(7-(4-((3S, 4R)-3-(2-fluorophenyl)-7-hydroxychroman-4-yl)phenyl)-2,7-diazaspiro[3.5]nonane-2-yl)piperidin-1-yl)-1-oxoisoinodolin-2-yl)pyridine-2,6-dione] returned a half-maximal degradation concentration (DC50) at ER [2] below 10 nM. Further, at ER [2] (read-out: Dmax), the Dmax was above 75%. Also, in assay [3] (Homo sapiens, MCF7, 360 h), the IC50 was below 10 nM.

On ER [2], `O=C1CCC(N2Cc3cc(N4CC5(CCN(CC6CCN(c7c(F)cc([C@@H]8c9ccc(O)cc9OC[C@@H]8c8ccccc8F)cc7F)CC6)CC5)C4)ccc3C2=O)C(=O)N1` (stereo partly drawn) [Example 50, 3-(5-(7-((1-(4-((3S,4R)-3-(2-fluorophenyl)-7-hydroxychroman-4-yl)-2,6-difluorophenyl)piperidin-4-yl)methyl)-2,7-diazaspiro[3.5]nonane-2-yl)-1-oxoisoinodolin-2-yl)piperidin-2,6-one] had a DC50 below 10 nM. The IC50 in assay [3] is below 10 nM.

At ER [2], `O=C1CCC(N2Cc3cc(N4CC5(CCN(CC6CCN(c7ccc(C8=C(c9c(F)cccc9F)COc9cc(O)ccc98)cc7F)CC6)CC5)C4)ccc3C2=O)C(=O)N1` (stereo not shown) [Example 76, 3-(5-(7-((1-(4-(3-(2,6-difluorophenyl)-7-hydroxyl-2H-chromene-4-yl)-2-fluorophenyl)piperidin-4-yl)methyl)-2,7-diazaspiro[3.5]nonane-2-yl)-1-oxoisoinodolin-2-yl)piperidin-6-dione] gave a DC50 below 10 nM. The Dmax on ER [2] (read-out: Dmax) was above 75%. The IC50 in assay [3] (Homo sapiens, MCF7, 360 h) was below 10 nM.

In the case of `O=C1CCC(N2Cc3cc(N4CC5(CCN(CC6CCN(c7c(F)cc([C@@H]8c9ccc(O)cc9OC[C@@H]8c8cccc(F)c8F)cc7F)CC6)CC5)C4)ccc3C2=O)C(=O)N1` (stereo partly drawn) [Example 49, 3-(5-(7-((1-(4-((3S, 4R)-3-(2,3-difluorophenyl)-7-hydroxychroman-4-yl)-2,6-difluorophenyl)piperidin-4-yl)methyl)-2,7-diazaspiro[3.5]nonane-2-yl)-1-oxoisoinodolin-2-yl)piperidin-2,6-one], on ER [2], the DC50 was below 10 nM. Besides, the 50% inhibitory concentration (IC50) in assay [3] (Homo sapiens, MCF7, 360 h) is below 10 nM.
